Results published in US6545000B1, “[1,2,4]triazolo[1,5-c]pyrimidine derivatives” (Kyowa Hakko Kogyo Co., Ltd., priority 1998, dated 2003).

What was measured:
Rat A2A receptor = target: T1, Rat A2A receptor (Rattus norvegicus, UniProt P30543); assay: Adenosine A2A receptor binding test (3H-CGS 21680 binding); conditions: 10^−6 mol/L test compound, rat corpus striatum
T1 construct: from tissue; host or cells: rat corpus striatum membrane preparation
Method: The final precipitate was suspended in 50 mmol/L Tris-HCl buffer (containing 10 mmol/L magnesium chloride and 0.02 unit/mg tissue of adenosine deaminase (manufactured by Sigma Co.)) by adding the buffer to the final precipitate so as to give a tissue concentration of 5 mg (wet weight)/mL.
Inhibition ratio (%)={1−(amount of the binding in the presence of the test compound−amount of the non-specific binding)/(amount of the total binding−amount of the non-specific binding)}×100

[1] = system: CGS 21680-induced catalepsy; assay: Activity on CGS 21680-induced catalepsy; type: in vivo, mouse; conditions: 10 mg/kg oral; for inhibition in vivo at 10 mg/kg: Mus musculus, 1 h, percentage reduction of total score vs control group, read-out: Remission ratio (%); for Total score: total catalepsy score of 10 mice (maximum 50 points), 1 hour after administration
Method: This test was carried out using 10 animals per group of male ddY mice of 5 week age (22 to 25 g in body weight, Japan SLC). […] One hour after the administration of the test compound, only forelimbs or only hindlimbs of each animal were laid on a vertically arranged stand made of acryl, having a size of 4.5 cm in height and 1.0 cm in width, to measure catalepsy symptoms. All of the test compounds were administered orally in a dose of 10 mg/kg.
(§1) The effect was judged by total catalepsy scores of 10 animals in one group (the maximum score is 50 points). When total score was 40 points or less, the activity of the compounds was judged positive. The number of animals showing remission of catalepsy was expressed by the number of cases in which the catalepsy score was 4 points or less in 10 cases. The catalepsy remission ratio was expressed as the percentage reduction of the total score in the test compound-administered group to the total score in the control group.

[2] = system: reserpine-induced catalepsy; assay: Activity on reserpine-induced catalepsy; type: in vivo, mouse; conditions: oral; for Remission ratio (%): percentage reduction of total score vs control group; for Total score: total catalepsy score of 10 mice (maximum 50 points), reserpine 5 mg/kg s.c., 1 hour after administration
Method: This test was carried out using 10 animals per group of male ddY mice of 5 week age (22 to 24 g in body weight, Japan SLC). […] Reserpine (5 mg/kg: apoplon, Daiichi Pharmaceutical Co., Ltd.; diluted with distilled water) was subcutaneously administered, and catalepsy-inducing activity was observed from 18 hours after the administration. […] Each test compound was suspended in distilled water for injection containing 0.5% MC (manufactured by Otsuka Pharmaceutical Co., Ltd.) The suspension containing each of the test compounds or a solution containing no test compound (distilled water for injection containing 0.5% MC (manufactured by Otsuka Pharmaceutical Co., Ltd.); control) was orally administered (0.1 mL per 10 g mouse body weight) and, one hour after the administration of test compound, only forelimbs or only hindlimbs of each animal were laid on a stand having a size of 4.5 cm in height and 1.0 cm in width, to measure catalepsy symptoms.
as §1, with “maximum” for “maximum score”, “When the” for “When”, “test compound” for “compounds”

T1 sequence (P30543 whole entry): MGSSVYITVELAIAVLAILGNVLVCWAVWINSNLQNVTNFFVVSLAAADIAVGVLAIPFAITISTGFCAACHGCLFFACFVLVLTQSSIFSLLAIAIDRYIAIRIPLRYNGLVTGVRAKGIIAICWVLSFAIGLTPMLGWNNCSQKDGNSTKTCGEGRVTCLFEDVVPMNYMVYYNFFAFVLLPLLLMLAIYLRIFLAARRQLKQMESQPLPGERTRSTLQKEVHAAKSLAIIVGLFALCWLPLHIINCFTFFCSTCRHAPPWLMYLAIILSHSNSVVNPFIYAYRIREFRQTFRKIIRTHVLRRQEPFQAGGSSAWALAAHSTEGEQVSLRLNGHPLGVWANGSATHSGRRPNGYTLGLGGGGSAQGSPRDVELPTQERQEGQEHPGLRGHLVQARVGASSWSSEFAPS

| Compound | melting point | Rat A2A receptor inhibition ratio (%) (Rat A2A receptor) | inhibition in vivo at 10 mg/kg [1] | Total score [1] | Remission ratio (%) [2] | Total score [2] |
| --- | --- | --- | --- | --- | --- | --- |
| CCC(C)(O)CN1CCN(c2cc3nc(-c4ccco4)nn3c(N)n2)CC1 (stereo not shown) [Compound 2, 5-Amino-2-(2-furyl)-7-(4-(2-hydroxy-2-methylbutyl)piperazinyl)[1,2,4]triazolo[1,5-c]pyrimidine] | 212 °C | 84% |  |  |  |  |
| CC(O)(CN1CCN(c2cc3nc(-c4ccco4)nn3c(N)n2)CC1)c1ccccc1 (stereo not shown) [Compound 3, 5-Amino-2-(2-furyl)-7-(4-(2-hydroxy-2-phenylpropyl)piperazinyl)[1,2,4]triazolo[1,5-c]pyrimidine] | 267 to 268 °C | 93% |  |  |  |  |
| Nc1nc(N2CCN(CC3(O)CC3)CC2)cc2nc(-c3ccco3)nn12 [Compound 5, 5-Amino-2-(2-furyl)-7-(4-(1-hydroxycyclopropylmethyl)piperazinyl)[1,2,4]triazolo[1,5-c]pyrimidine] |  |  | 90% | 5 | 76% | 12 |
| COC(C)(C)CN1CCN(c2cc3nc(-c4ccco4)nn3c(N)n2)CC1 [Compound 6, 5-Amino-2-(2-furyl)-7-(4-(2-methoxy-2-methylpropyl)piperazinyl)[1,2,4]triazolo[1,5-c]pyrimidine] |  |  | 84% | 8 | 78% | 11 |
| CC(C)(O)CCN1CCN(c2cc3nc(-c4ccco4)nn3c(N)n2)CC1 [Compound 7, 5-Amino-2-(2-furyl)-7-(4-(3-hydroxy-3-methylbutyl)piperazinyl)[1,2,4]triazolo[1,5-c]pyrimidine] |  |  |  | 8 |  | 23 |
| CCC(C)(O)CCN1CCN(c2cc3nc(-c4ccco4)nn3c(N)n2)CC1 (stereo not shown) [Compound 8, 5-Amino-2-(2-furyl)-7-(4-(3-hydroxy-3-methylpentyl)piperazinyl)[1,2,4]triazolo[1,5-c]pyrimidine] | 196 to 197 °C | 84% |  |  |  |  |
| CC(O)(CCN1CCN(c2cc3nc(-c4ccco4)nn3c(N)n2)CC1)c1ccccc1 (stereo not shown) [Compound 9, 5-Amino-2-(2-furyl)-7-(4-(3-hydroxy-3-phenylbutyl)piperazinyl)[1,2,4]triazolo[1,5-c]pyrimidine] | 123 to 124 °C | 89% |  |  |  |  |
| CCC(O)(CC)CCN1CCN(c2cc3nc(-c4ccco4)nn3c(N)n2)CC1 [Compound 10, 5-Amino-2-(2-furyl)-7-(4-(3-ethyl-3-hydroxypentyl)piperazinyl)[1,2,4]triazolo[1,5-c]pyrimidine] |  | 87% | 78% | 11 |  |  |
| COC(C)(C)CCN1CCN(c2cc3nc(-c4ccco4)nn3c(N)n2)CC1 [Compound 11, 5-Amino-2-(2-furyl)-7-(4-(3-methoxy-3-methylbutyl)piperazinyl)[1,2,4]triazolo[1,5-c]pyrimidine] | 194 to 195 °C | 88% |  |  |  |  |
| CC(C)(O)CCCN1CCN(c2cc3nc(-c4ccco4)nn3c(N)n2)CC1 [Compound 13, 5-Amino-2-(2-furyl)-7-(4-(4-hydroxy-4-methylpentyl)piperazinyl)[1,2,4]triazolo[1,5-c]pyrimidine] |  |  | 80% | 10 |  |  |
| CC(C)(O)CCCCN1CCN(c2cc3nc(-c4ccco4)nn3c(N)n2)CC1 [Compound 14, 5-Amino-2-(2-furyl)-7-(4-(5-hydroxy-5-methylhexyl)piperazinyl)[1,2,4]triazolo[1,5-c]pyrimidine] |  |  | 82% | 9 | 76% | 12 |
| Nc1nc(N2CCN(Cc3cn4ccccc4n3)CC2)cc2nc(-c3ccco3)nn12 [Compound 15, 5-Amino-2-(2-furyl)-7-(4-(imidazo[1,2-a]pyridin-2-ylmethyl)piperazinyl)[1,2,4]triazolo[1,5-c]pyrimidine] | 220 to 221 °C | 92% |  |  |  |  |
| Nc1nc(N2CCN(Cc3cn4ccncc4n3)CC2)cc2nc(-c3ccco3)nn12 [Compound 16, 5-Amino-2-(2-furyl)-7-(4-(imidazo[1,2-a]pyrazin-2-ylmethyl)piperazinyl)[1,2,4]triazolo[1,5-c]pyrimidine] | 242 to 244 °C | 88% |  |  |  |  |
| Nc1nc(N2CCN(Cc3cn4cccnc4n3)CC2)cc2nc(-c3ccco3)nn12 [Compound 17, 5-Amino-2-(2-furyl)-7-(4-(imidazo[1,2-a]pyrimidin-2-ylmethyl)piperazinyl)[1,2,4]triazolo[1,5-c]pyrimidine] | 244 to 246 °C | 90% |  |  |  |  |
| Nc1nc(N2CCN(Cc3nc4ccccc4[nH]3)CC2)cc2nc(-c3ccco3)nn12 [Compound 18, 5-Amino-7-(4-(benzimidazol-2-ylmethyl)piperazinyl)-2-(2-furyl)[1,2,4]triazolo[1,5-c]pyrimidine] | 284 to 286 °C | 96% |  |  |  |  |
| Nc1nc(N2CCN(Cc3nc4ccccc4s3)CC2)cc2nc(-c3ccco3)nn12 [Compound 19, 5-Amino-7-(4-(benzothiazol-2-ylmethyl)piperazinyl)-2-(2-furyl)[1,2,4]triazolo[1,5-c]pyrimidine] |  | 95% | 90% | 5 | 62% | 19 |
| Nc1nc(N2CCN(Cc3ccc4nsnc4c3)CC2)cc2nc(-c3ccco3)nn12 [Compound 20, 5-Amino-7-(4-(benzo-2,1,3-thiadiazol-5-ylmethyl)piperazinyl)-2-(2-furyl)[1,2,4]triazolo[1,5-c]pyrimidine] |  |  | 90% | 5 |  |  |
| Cc1cc(CN2CCN(c3cc4nc(-c5ccco5)nn4c(N)n3)CC2C)no1 (stereo not shown) [Compound 22, 5-Amino-2-(2-furyl)-7-(3-methyl-4-(5-methylisoxazol-3-ylmethyl)piperazinyl)[1,2,4]triazolo[1,5-c]pyrimidine] |  | 84% | 98% | 1 | 74% | 13 |
| Cc1cc(C(C)N2CCN(c3cc4nc(-c5ccco5)nn4c(N)n3)CC2)no1 (stereo not shown) [Compound 23, 5-Amino-2-(2-furyl)-7-(4-(1-(5-methylisoxazol-3-yl)ethyl)piperazinyl)[1,2,4]triazolo[1,5-c]pyrimidine] |  | 75% |  |  |  |  |
| Cc1nocc1CN1CCN(c2cc3nc(-c4ccco4)nn3c(N)n2)CC1 [Compound 24, 5-Amino-2-(2-furyl)-7-(4-(3-methylisoxazol-4-ylmethyl)piperazinyl)[1,2,4]triazolo[1,5-c]pyrimidine] |  | 96% | 96% | 2 | 72% | 14 |
| Nc1nc(N2CCN(Cc3ccc4c(c3)NC(=O)CO4)CC2)cc2nc(-c3ccco3)nn12 [Compound 27, 5-Amino-2-(2-furyl)-7-(4-(3-oxo-3,4-dihydro-2H-benzo[1,4]oxazin-6-ylmethyl)piperazinyl)[1,2,4]triazolo[1,5-c]pyrimidine] |  | 96% | 92% | 4 |  |  |
